Experiments:
Assay type in all cases: cell-based
ADRA1A [1] = test: ADRA1A agonist and antagonist validation in Hek293 APPwt cells, amyloid beta ELISA
Source text: (§1) To identify novel drug targets that change the APP processing, stable cell lines over expressing APP are made by transfecting Hek293 or SH-SY5Y cells with APP770 wt cDNA cloned into pcDNA3.1, followed by selection with G418 for 3 weeks. At this time point colonies are picked and stable clones are expanded and tested for their secreted amyloid-beta peptide levels. The cell lines designated as “Hek293 APPwt” and “SH-SY5Y APPwt” are used in the assays.
Hek293 APPwt Assay: Cells seeded in collagen-coated plates at a cell density of 15000 cells/well (384 well plate) in DMEM (10% FBS), are infected 24 h later with 1 μl or 0.2 μl of adenovirus (corresponding to an average multiplicity of infection (MOI) of 120 and 24 respectively). The following day, the virus is washed away and DMEM (25 mM Hepes; 10% FBS) is added to the cells. Amyloid-beta peptides are allowed to accumulate during 24 h.
(§2) ELISA: The ELISA plate is prepared by coating with a capture antibody (JRF/cAbeta42/26) (the antibody recognizes a specific epitope on the C-terminus of Abeta 1-42; obtained from M Mercken, Johnson and Johnson Pharmaceutical Research and Development, B-2340 Beerse, Belgium) overnight in buffer 42 (Table 2) at a concentration of 2.5 μg/ml. The excess capture antibody is washed away the next morning with PBS and the ELISA plate is then blocked overnight with casein buffer (see Table 2) at 4° C. Upon removal of the blocking buffer, 30 μl of the sample is transferred to the ELISA plate and incubated overnight at 4° C. After extensive washing with PBS-Tween20 and PBS, 30 μl of the horseradish peroxidase (HRP) labeled detection antibody (Peroxidase Labeling Kit, Roche), JRF/AbetaN/25-HRP (obtained from M Mercken, Johnson and Johnson Pharmaceutical Research and Development, B-2340 Beerse, Belgium) is diluted 1/5000 in buffer C (see Table 2) and added to the wells for another 2 h. Following the removal of excess detection antibody by a wash with PBS-Tween20 and PBS, HRP activity is detected via addition of luminol substrate (Roche), which is converted into a chemiluminescent signal by the HRP enzyme.
In addition, for the SH-SY5Y APPwt assay, the samples are also analyzed in an amyloid beta x-42 ELISA. This ELISA detects all amyloid beta peptide species ending at position 42, comprising 1-42, 11-42 and 17-42 (p3), which originate respectively from BACE activity at position 1 and 11, and alpha secretase activity at position 17. Thus, in addition to the amyloidogenic pathway, the non-amyloidogenic pathway is also monitored. The protocol for the Abeta x-42 ELISA is identical to the protocol for the Abeta 1-42 ELISA, except that a HRP labeled 4G8 antibody (Signet; the antibody recognizes a specific epitope in the center of the Abeta peptides) is used as detection antibody. […]

ADRA1A [2] = test: ADRA1A agonist and antagonist validation in SH-SY5Y APPwt cells, amyloid beta ELISA
Description: as §1
SH-SY5Y APPwt Assay: Cells are seeded in collagen-coated plates at a cell density of 15000 cells/well (384 well plate) in Dulbecco's MEM with Glutamax I+15% FBS HI+non-essential amino acids+Geneticin 500 μg/ml. The cells are differentiated towards the neuronal phenotype by adding 9-cis retinoic acid to a final concentration of 1 μM on day 1, day 3, day 5 and day 8. On day 9, the cells are infected with 1 μl of adenovirus (corresponding to an average multiplicity of infection (MOI) of 120 respectively). The following day, the virus is washed away and DMEM 25 mM Hepes 10% FBS is added to the cells. Amyloid beta peptides are allowed to accumulate for 24 h.
as §2
In addition, for the SH-SY5Y APPwt assay, the samples are also analyzed in an amyloid beta x-42 ELISA. This ELISA detects all amyloid beta peptide species ending at position 42, comprising 1-42, 11-42 and 17-42 (p3), which originate respectively from BACE activity at position 1 and 11, and alpha secretase activity at position 17. Thus, in addition to the amyloidogenic pathway, the non-amyloidogenic pathway is also monitored. […]

TACR1 = TACR1 (Homo sapiens, UniProt P25103); test: TACR1 agonist and antagonist validation in Hek293 APPwt cells, amyloid beta ELISA; conditions: Hek293 APPwt cells infected with Ad5/TACR1_v1
Description: ELISA: The ELISA plate is prepared by coating with a capture antibody (JRF/cAbeta42/26) (the antibody recognizes a specific epitope on the C-terminus of Abeta 1-42; obtained from M Mercken, Johnson and Johnson Pharmaceutical Research and Development, B-2340 Beerse, Belgium) overnight in buffer 42 (Table 2) at a concentration of 2.5 μg/ml. The excess capture antibody is washed away the next morning with PBS and the ELISA plate is then blocked overnight with casein buffer (see Table 2) at 4° C. Upon removal of the blocking buffer, 30 μl of the sample is transferred to the ELISA plate and incubated overnight at 4° C. […]
In addition, for the SH-SY5Y APPwt assay, the samples are also analyzed in an amyloid beta x-42 ELISA. […] Thus, in addition to the amyloidogenic pathway, the non-amyloidogenic pathway is also monitored. […]

[3] = Hek293 APPwt cells infected with Ad5/ADRA1A_v1, increasing amounts of agonist, 24 h, concentration dependent
[4] = SH-SY5Y APPwt cells infected with Ad5/ADRA1A_v1, increasing amounts of agonist, 24 h, concentration dependent

Chain of TACR1 (P25103 whole entry): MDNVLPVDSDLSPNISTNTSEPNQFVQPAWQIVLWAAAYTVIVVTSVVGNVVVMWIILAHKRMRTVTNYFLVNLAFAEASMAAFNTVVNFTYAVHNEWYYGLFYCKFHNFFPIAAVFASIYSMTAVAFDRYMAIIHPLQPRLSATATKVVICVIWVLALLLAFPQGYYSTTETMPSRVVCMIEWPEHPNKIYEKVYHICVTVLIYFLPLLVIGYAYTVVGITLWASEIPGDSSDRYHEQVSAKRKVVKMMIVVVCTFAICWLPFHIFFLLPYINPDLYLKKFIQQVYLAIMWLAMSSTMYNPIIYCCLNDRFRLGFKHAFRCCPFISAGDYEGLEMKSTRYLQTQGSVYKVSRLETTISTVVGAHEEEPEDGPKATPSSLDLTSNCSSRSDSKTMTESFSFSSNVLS

With `Br.CS(=O)(=O)Nc1c(O)ccc2c1CCCC2C1=NCCN1` (stereo not shown) [A61603] the “amount of amyloid beta 1-42 secreted in the medium” value (ADRA1A [1]; [3]) was “decreased”, the “amount of amyloid beta x-42 secreted in the medium” value (ADRA1A [1]; [3]) was “increased” and the “amount of amyloid beta 1-42 secreted in the medium” value (ADRA1A [2]; [4]) was “increased”. The “amount of amyloid beta x-42 secreted in the medium” value (ADRA1A [2]; [4]) was “increased”.
`Cl.FC(F)(F)c1cc(CO[C@H]2CCCN[C@H]2c2ccccc2)cc(C(F)(F)F)c1` [L-733,060 hydrochloride] was tested, and the “observed Substance P EC50 values with increasing concentration of the antagonist” value (TACR1; amyloid beta x-42 ELISA, 0.1, 1 and 10 μM antagonist) was “increased” and the “amount of amyloid beta x-42 secreted in the medium” value (TACR1; substance P plus fixed 0.1, 1 and 10 μM antagonist, 24 h, concentration dependent) was “reduces”.
In the case of `CC(C)(Cc1c[nH]c2ccc(Cl)cc12)NCCOc1ccccc1OCC1CC1.Cl` [RS-17053 hydrochloride], the “amount of amyloid beta x-42 secreted in the medium” value (ADRA1A [1]; Hek293 APPwt cells infected with Ad5/ADRA1A_v1, A61603 plus fixed 0.1 and 1 μM antagonist, 24 h, concentration dependent) is reported as “reduced”, the “observed EC50 values (agonist A61603) with increasing concentration of the antagonist” value (ADRA1A [1]; Hek293 APPwt cells, amyloid beta x-42 ELISA, 0.1 and 1 μM antagonist) is reported as “increased” and the “amount of amyloid beta 1-42 secreted in the medium” value (ADRA1A [2]; SH-SY5Y APPwt cells infected with Ad5/ADRA1A_v1, A61603 plus fixed 0.1 and 1 μM antagonist, 24 h, concentration dependent) is reported as “reduced”. The “observed EC50 values (agonist A61603) with increasing concentration of the antagonist” value (ADRA1A [2]; SH-SY5Y APPwt cells, amyloid beta 1-42 ELISA, 0.1 and 1 μM antagonist) was “increased”.

From patent US20050287565A1, “Methods, compositions and compound assays for inhibiting amyloid-beta protein production” (priority 2004, published 2005)
